Test results from the supplement of paper PMC10307832.

How the values were obtained:
Assay in all cases: relative viability (nuclei count vs DMSO), 5 days (fraction); higher = more cells survive
NCI-H1793 = system: NCI-H1793
Summary of the method: (§1)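 Relative viability was taken as the ratio of nuclei in treated wells to nuclei in vehicle wells. Lung cancer cell lines in 1536-well plates received compounds by pin tool one day after seeding, either one drug alone or a fixed anchor-drug dose plus five library-drug doses (not always all listed) in √10 steps. Nuclei were counted on 4× images after 5 days of treatment, and values are medians of duplicate plates.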

HCC-366 = system: HCC-366
Summary of the method: as §1

NCI-H441 = system: NCI-H441
Summary of the method: as §1

NCI-H1651 = system: NCI-H1651
Summary of the method: as §1

LOU-NH91 = system: LOU-NH91
Summary of the method: as §1

NCI-H522 = system: NCI-H522
Summary of the method: as §1

LXF-289 = system: LXF-289
Summary of the method: as §1

NCI-H2347 = system: NCI-H2347
Summary of the method: as §1

HCC-15 = system: HCC-15
Summary of the method: as §1

NCI-H2085 = system: NCI-H2085
Summary of the method: as §1

H3255 = system: H3255
Summary of the method: as §1

NCI-H1915 = system: NCI-H1915
Summary of the method: as §1

LC-2-ad = system: LC-2-ad
Summary of the method: as §1

NCI-H838 = system: NCI-H838
Summary of the method: as §1

SK-MES-1 = system: SK-MES-1
Summary of the method: as §1

HARA = system: HARA
Summary of the method: as §1

NCI-H661 = system: NCI-H661
Summary of the method: as §1

BEN = system: BEN
Summary of the method: as §1

NCI-H647 = system: NCI-H647
Summary of the method: as §1

CAL-12T = system: CAL-12T
Summary of the method: as §1

NCI-H322M = system: NCI-H322M
Summary of the method: as §1

NCI-H2170 = system: NCI-H2170
Summary of the method: as §1

UMC-11 = system: UMC-11
Summary of the method: as §1

NCI-H650 = system: NCI-H650
Summary of the method: as §1

NCI-H1395 = system: NCI-H1395
Summary of the method: as §1

Compound: Nc1cccc2c1CN(C1CCC(=O)NC1=O)C2=O (stereo unspecified) [Lenalidomide] + Nc1nc2[nH]cc(CCc3ccc(C(=O)N[C@@H](CCC(=O)O)C(=O)O)cc3)c2c(=O)[nH]1 [Pemetrexed] (partner 0.2 µM)
- relative viability (NCI-H1793; first compound 0.253 µM): 0.921
- relative viability (NCI-H1793; first compound 2.53 µM): 1.15
- relative viability (NCI-H1793; first compound 8 µM): 0.411
- relative viability (HCC-366; first compound 0.253 µM): 0.161
- relative viability (HCC-366; first compound 0.8 µM): 0.123
- relative viability (HCC-366; first compound 2.53 µM): 0.206
- relative viability (HCC-366; first compound 8 µM): 0.264
- relative viability (NCI-H441; first compound 0.253 µM): 0.27
- relative viability (NCI-H441; first compound 0.8 µM): 0.273
- relative viability (NCI-H441; first compound 2.53 µM): 0.268
- relative viability (NCI-H441; first compound 8 µM): 0.242
- relative viability (NCI-H1651; first compound 0.253 µM): 0.608
- relative viability (NCI-H1651; first compound 0.8 µM): 0.497
- relative viability (NCI-H1651; first compound 2.53 µM): 0.586
- relative viability (NCI-H1651; first compound 8 µM): 0.582
- relative viability (LOU-NH91; first compound 0.253 µM): 0.398
- relative viability (LOU-NH91; first compound 0.8 µM): 0.361
- relative viability (LOU-NH91; first compound 2.53 µM): 0.408
- relative viability (LOU-NH91; first compound 8 µM): 0.406
- relative viability (NCI-H522; first compound 0.253 µM): 1.05
- relative viability (NCI-H522; first compound 0.8 µM): 0.912
- relative viability (NCI-H522; first compound 2.53 µM): 1.11
- relative viability (NCI-H522; first compound 8 µM): 0.663
- relative viability (LXF-289; first compound 0.253 µM): 0.904
- relative viability (LXF-289; first compound 0.8 µM): 1.13
- relative viability (LXF-289; first compound 2.53 µM): 0.939
- relative viability (LXF-289; first compound 8 µM): 1.06
- relative viability (NCI-H2347; first compound 0.253 µM): 0.405
- relative viability (NCI-H2347; first compound 0.8 µM): 0.435
- relative viability (NCI-H2347; first compound 2.53 µM): 0.415
- relative viability (NCI-H2347; first compound 8 µM): 0.431
- relative viability (HCC-15; first compound 0.253 µM): 0.219
- relative viability (HCC-15; first compound 2.53 µM): 0.231
- relative viability (HCC-15; first compound 8 µM): 0.228
- relative viability (NCI-H2085; first compound 0.253 µM): 0.884
- relative viability (NCI-H2085; first compound 0.8 µM): 0.96
- relative viability (NCI-H2085; first compound 2.53 µM): 0.924
- relative viability (NCI-H2085; first compound 8 µM): 0.873
- relative viability (H3255; first compound 0.253 µM): 0.65
- relative viability (H3255; first compound 0.8 µM): 0.565
- relative viability (H3255; first compound 2.53 µM): 0.585
- relative viability (H3255; first compound 8 µM): 0.605
- relative viability (NCI-H1915; first compound 0.253 µM): 0.492
- relative viability (NCI-H1915; first compound 0.8 µM): 0.515
- relative viability (NCI-H1915; first compound 2.53 µM): 0.518
- relative viability (NCI-H1915; first compound 8 µM): 0.476
- relative viability (LC-2-ad; first compound 0.253 µM): 0.269
- relative viability (LC-2-ad; first compound 0.8 µM): 0.258
- relative viability (LC-2-ad; first compound 2.53 µM): 0.262
- relative viability (LC-2-ad; first compound 8 µM): 0.269
- relative viability (NCI-H838; first compound 0.253 µM): 0.247
- relative viability (NCI-H838; first compound 0.8 µM): 0.265
- relative viability (NCI-H838; first compound 2.53 µM): 0.241
- relative viability (NCI-H838; first compound 8 µM): 0.265
- relative viability (SK-MES-1; first compound 0.253 µM): 0.91
- relative viability (SK-MES-1; first compound 0.8 µM): 0.823
- relative viability (SK-MES-1; first compound 2.53 µM): 0.934
- relative viability (SK-MES-1; first compound 8 µM): 0.888
- relative viability (HARA; first compound 0.253 µM): 0.258
- relative viability (HARA; first compound 2.53 µM): 0.249
- relative viability (HARA; first compound 8 µM): 0.259
- relative viability (NCI-H661; first compound 0.253 µM): 0.908
- relative viability (NCI-H661; first compound 0.8 µM): 0.935
- relative viability (NCI-H661; first compound 2.53 µM): 0.926
- relative viability (NCI-H661; first compound 8 µM): 0.932
- relative viability (BEN; first compound 0.253 µM): 0.787
- relative viability (BEN; first compound 0.8 µM): 0.608
- relative viability (BEN; first compound 2.53 µM): 0.737
- relative viability (BEN; first compound 8 µM): 0.673
- relative viability (NCI-H647; first compound 0.253 µM): 0.173
- relative viability (NCI-H647; first compound 0.8 µM): 0.164
- relative viability (NCI-H647; first compound 2.53 µM): 0.178
- relative viability (NCI-H647; first compound 8 µM): 0.182
- relative viability (CAL-12T; first compound 0.253 µM): 1.18
- relative viability (CAL-12T; first compound 0.8 µM): 1.32
- relative viability (CAL-12T; first compound 2.53 µM): 1.67
- relative viability (CAL-12T; first compound 8 µM): 1.57
- relative viability (NCI-H322M; first compound 0.253 µM): 0.631
- relative viability (NCI-H322M; first compound 0.8 µM): 0.635
- relative viability (NCI-H322M; first compound 2.53 µM): 0.664
- relative viability (NCI-H322M; first compound 8 µM): 0.697
- relative viability (NCI-H2170; first compound 0.253 µM): 0.279
- relative viability (NCI-H2170; first compound 0.8 µM): 0.282
- relative viability (NCI-H2170; first compound 2.53 µM): 0.259
- relative viability (NCI-H2170; first compound 8 µM): 0.27
- relative viability (UMC-11; first compound 0.253 µM): 0.93
- relative viability (UMC-11; first compound 0.8 µM): 0.72
- relative viability (UMC-11; first compound 2.53 µM): 0.84
- relative viability (UMC-11; first compound 8 µM): 0.8
- relative viability (NCI-H650; first compound 0.253 µM): 0.902
- relative viability (NCI-H650; first compound 0.8 µM): 0.914
- relative viability (NCI-H650; first compound 2.53 µM): 1.07
- relative viability (NCI-H650; first compound 8 µM): 0.841
- relative viability (NCI-H1395; first compound 0.253 µM): 0.875
- relative viability (NCI-H1395; first compound 2.53 µM): 0.948
- relative viability (NCI-H1395; first compound 8 µM): 0.874
